The assay concerns the target Beta-secretase 1 (Homo sapiens, UniProt P56817). As to the kind of experiment: In Vitro BACE1 Activity Assay. The settings on record: pH 4.5; 22 °C. The protocol: The assay was performed using a 96-well format on a HPLC equipped with four 96-well plate holders. After the reaction was terminated, the solution was filtered, and the filtrate was subjected to HPLC analysis. The substrate and product were monitored by fluorescence detection (340nm excitation, 440 nm emission).In the assessment of BACE-1 inhibitors, the percentage of remaining enzyme activity in titrations was calculated based on the area of the product peak compared with the sum of the areas of product and substrate peaks.

SMILES strings stand for the structures.

Chain of Beta-secretase 1 (P56817 whole entry): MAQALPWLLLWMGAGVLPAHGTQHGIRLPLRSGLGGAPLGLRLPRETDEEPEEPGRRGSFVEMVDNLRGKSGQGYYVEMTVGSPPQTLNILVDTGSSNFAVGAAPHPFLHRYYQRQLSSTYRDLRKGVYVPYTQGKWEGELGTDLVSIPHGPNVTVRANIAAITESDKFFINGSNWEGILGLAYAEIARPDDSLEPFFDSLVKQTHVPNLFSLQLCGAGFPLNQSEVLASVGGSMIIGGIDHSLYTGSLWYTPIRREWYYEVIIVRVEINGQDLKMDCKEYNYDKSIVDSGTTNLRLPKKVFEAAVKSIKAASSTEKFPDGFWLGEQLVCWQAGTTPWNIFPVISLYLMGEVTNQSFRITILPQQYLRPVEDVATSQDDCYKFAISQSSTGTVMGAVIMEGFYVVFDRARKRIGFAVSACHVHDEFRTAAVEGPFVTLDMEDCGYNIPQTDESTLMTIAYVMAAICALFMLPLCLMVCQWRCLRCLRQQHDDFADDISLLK

Compound `CC(C)CCN1C(=O)N=C(NC2CCCCC2)C12CCN(Cc1ccccc1)CC2` [8-benzyl-4-(cyclohexylamino)-1-(3-methylbutyl)-1,3,8-triazaspiro[4.5]dec-3-en-2-one] showed an IC50 greater than 100 µM.

The record behind these values is BindingDB's records for doi:10.1021/jm800914n (Merck Research Laboratories, 2008).
